How the values were obtained:
[1] = system: Human normal epidermal keratinocytes; test: Amino acid deficient medium culturing test; type: cell-based; settings: for Relative ratio: number of cells, named amino acid reduced to 10% by weight of general MCDB 153 medium concentration, 5 days culture, non-deficient medium = 100; for growth of human epidermal keratinocytes in deficient medium: medium deficient in the named amino acid
Description: Human normal epidermal keratinocytes (Sanko Junyaku) were used as the cells. […] The cells were pre-cultured at 37° C., under an atmosphere of 5% (v/v) CO2 until they became a semi-confluent state.
The keratinocytes cultured under a growing state in a T 75 flask were used. After removing the medium by suction, 5 ml of 0.25% trypsin solution was added thereto and incubated at room temperature for 10 minutes. A 10 ml portion of the medium was added thereto, and the cells were peeled off and recovered by pipetting. The thus obtained cell suspension was centrifuged at 1,000 rpm for 5 minutes, and the supernatant was discarded. The thus obtained cell pellet was suspended in 10 ml of the medium and centrifuged at 1,000 rpm for 5 minutes, and the supernatant was discarded. The thus obtained cell pellet was again suspended in 10 ml of the medium and centrifuged at 1,000 rpm for 5 minutes, and the supernatant was discarded. The thus obtained cell pellet was suspended in 2 ml of the medium, and the number of cells was counted.
As growth factors, 50 mg/l of BPE (bovine pituitary gland extract), 5 mg/l of insulin, 0.1 mM ethanolamine, 0.1 mM phosphoethanolamine and 0.00001 mg EGF ([…]) were added thereto. The aforementioned cells were mixed with 1 ml of this medium at a density of 3×10^4 cells, inoculated onto a 24 well plate and cultured at 37° C. for 5 days under an atmosphere of 5% (v/v) CO2, and then the number of cells was counted.

[2] = system: abdominal skin of male hairless mice; settings: for Permeability (%) of the permeated whole amino acids: male, hairless, mouse, 24 h, 1 % by weight
Description: The skin sample was attached to a Keshany-Chien type diffusion cell. A 1 ml portion of each test liquid (described later) was added to the donor phase, and its upper side was sealed with Para Film. A 0.01 mol/l phosphate buffered saline (Wako Pure Chemical Industries) was added to the receptor phase, stirred and incubated at 32° C., and amounts of amino acids were determined by an HPLC method 24 hours later to calculate permeation ratio.
Using an HPLC amino acid analysis system of Shimadzu Corp. (Prominence), the determination was carried out by a post column fluorescence detection method which uses OPA (ortho-phthalaldehyde) as a reaction reagent.

| Permeability of each amino acid [2] [%] | Permeability (%) of the permeated whole amino acids [2] [%] | Compound | Relative ratio [1] | growth of human epidermal keratinocytes in deficient medium [1] |
| --- | --- | --- | --- | --- |
| 8.4 | – | C[C@H](N)C(=O)O [Alanine] | 14 | – |
| 14.2 | – | NC(=O)C[C@H](N)C(=O)O [Asparagine] | 13 | – |
| 19.1 | – | N[C@@H](CC(=O)O)C(=O)O [Aspartic acid] | 6 | growth was suppressed |
| 14.7 | – | N[C@@H](CS)C(=O)O [Cysteine] | 9 | growth was suppressed |
| – | 9.6 | OC[C@H]1OC(O)[C@H](O)[C@@H](O)[C@@H]1O (stereo partly shown) [Glucose] | – | – |
| – | – | N[C@@H](CCC(=O)O)C(=O)O [Glutamic acid] | 15 | – |
| 10.2 | – | NC(=O)CC[C@H](N)C(=O)O [Glutamine] | 16 | – |
| 14.3 | – | NCC(=O)O [Glycine] | 9 | growth was suppressed |
| 15.2 | – | N[C@@H](Cc1c[nH]cn1)C(=O)O [Histidine] | 7 | growth was suppressed |
| 20.8 | – | CC[C@H](C)[C@H](N)C(=O)O [Isoleucine] | 7 | growth was suppressed |
| 21.3 | – | CC(C)C[C@H](N)C(=O)O [Leucine] | 6 | growth was suppressed |
| 7.4 | – | CSCC[C@H](N)C(=O)O [Methionine] | 12 | – |
| 15.1 | – | N[C@@H](Cc1ccccc1)C(=O)O [Phenylalanine] | 4 | growth was suppressed |
| 7.9 | – | O=C(O)[C@@H]1CCCN1 [Proline] | 13 | – |
| 15.2 | – | N[C@@H](CO)C(=O)O [Serine] | 6 | growth was suppressed |
| 19.3 | – | C[C@@H](O)[C@H](N)C(=O)O [Threonine] | 8 | growth was suppressed |
| – | 7.2 | OC[C@H]1O[C@H](O[C@H]2O[C@H](CO)[C@@H](O)[C@H](O)[C@H]2O)[C@H](O)[C@@H](O)[C@@H]1O [Trehalose] | – | – |
| – | – | N[C@@H](Cc1ccc(O)cc1)C(=O)O [Tyrosine] | – | growth was suppressed |
| 14.9 | – | CC(C)[C@H](N)C(=O)O [Valine] | 9 | growth was suppressed |

| Compound | Permeability of each amino acid [2] [%] | Permeability (%) of the permeated whole amino acids [2] [%] | Relative ratio [1] | growth of human epidermal keratinocytes in deficient medium [1] |
| --- | --- | --- | --- | --- |
| N=C(N)NCCC[C@H](N)C(=O)O [Arginine] | 18.1 | – | 8 | growth was suppressed |
| NCCCC[C@H](N)C(=O)O [Lysine] | 19.6 | – | 9 | growth was suppressed |
| N[C@@H](Cc1c[nH]c2ccccc12)C(=O)O [Tryptophan] | 3.6 | – | 15 | – |

Source: patent US20080058400A1, “Skin external preparation” (FUJIFILM CORPORATION, priority 2006, published 2008)
